In patent publication US12070457B2, “Substituted pyridines, pyridazines, pyrimidines, and 1,2,3-triazines as bruton's tyrosine kinase inhibitors” (HUTCHISON MEDIPHARMA LIMITED, priority 2020, dated 2024):
Where two headings read alike, the source gives them in different places.

Experiments:
[1] = Study on in vivo pharmacokinetics in mice; set-up: species or system mouse; conditions: for concentration at 8 h / concentration at 24 h: male, ICR, mouse
From the text: Example 6 Study on In Vivo Pharmacokinetics in Mice
Solutol HS15 was purchased from BASF, Germany, ethanol (anhydrous) was purchased from Nanjing Chemical Reagent Co., Ltd., physiological saline was purchased from Huayu (Wuxi) Pharmaceutical Co., Ltd., dimethyl sulfoxide (DMSO) and sodium carboxymethyl cellulose 800-1200 (CMC-Na) were purchased from Sinopharm Chemical Reagent Co., Ltd.
Preparation of ethanol/Solutol mixed solution (1:1, v/v): taking an appropriate amount of Solutol HS15 in a centrifuge tube and placing in a 37° C. water bath until dissolved, placing on the bench top to room temperature, taking 1 mL of Solutol in a centrifuge tube containing 1 mL of ethanol and mixing well to obtain the mixed solution.
Taking an appropriate amount of stock solution and placing in a blank centrifuge tube, adding an appropriate amount of ethanol/Solutol mixed solution prepared in advance, vortexing, then adding an appropriate amount of physiological saline, and mixing well until a transparent liquid.
3. Administration to Animals and Sample Collection:
Male ICR mice were purchased from Shanghai Lingchang Biotechnology Co., Ltd. 18 mice were randomly divided into intravenous administration group and intragastric administration group. The mice were fasted overnight before administration. The mice were withheld food but allowed to access water freely within 4 hours after administration, and allowed to freely access food and water after 4 hours. After anesthesia with isoflurane, blood was collected from the retroorbital venous plexus and placing in an centrifuge tube containing anticoagulant, and the centrifuge tube was stored in an box containing wet ice until the plasma was centrifuged.
The plasma samples were pre-treated and then analyzed by liquid chromatography-tandem mass spectrometry (LC-MS/MS), the instrument model was API5500. The analytical chromatographic column was Waters XSELECT HSS T3 C18 column (50×2.1 mm, 2.5 μm). In the mobile phases, deionized water containing 0.1% formic acid and 0.1% acetonitrile was used as the aqueous phase and acetonitrile containing 0.1% formic acid was used as the organic phase. The concentrations of the compound in the samples were determined as follows. Firstly, a standard curve was established, and the peak area ratios of the compound 19 to the internal standard in the standard curve were used as indexes. The theoretical concentrations of compound 19 and the peak area ratios of compound 19 to the internal standard were fitted with a quadratic regression equation to obtain the regression equation. The sample concentrations were calculated by measuring the peak area ratio of the compound of the test sample to the internal standard according to the standard curve.

[2] = molecular target: BTK recombinant protein (Homo sapiens (Human), UniProt Q06187); assay: Determination of biochemical BTK (Z'-LYTE kinase assay)
BTK recombinant protein, sequence (Q06187 whole entry): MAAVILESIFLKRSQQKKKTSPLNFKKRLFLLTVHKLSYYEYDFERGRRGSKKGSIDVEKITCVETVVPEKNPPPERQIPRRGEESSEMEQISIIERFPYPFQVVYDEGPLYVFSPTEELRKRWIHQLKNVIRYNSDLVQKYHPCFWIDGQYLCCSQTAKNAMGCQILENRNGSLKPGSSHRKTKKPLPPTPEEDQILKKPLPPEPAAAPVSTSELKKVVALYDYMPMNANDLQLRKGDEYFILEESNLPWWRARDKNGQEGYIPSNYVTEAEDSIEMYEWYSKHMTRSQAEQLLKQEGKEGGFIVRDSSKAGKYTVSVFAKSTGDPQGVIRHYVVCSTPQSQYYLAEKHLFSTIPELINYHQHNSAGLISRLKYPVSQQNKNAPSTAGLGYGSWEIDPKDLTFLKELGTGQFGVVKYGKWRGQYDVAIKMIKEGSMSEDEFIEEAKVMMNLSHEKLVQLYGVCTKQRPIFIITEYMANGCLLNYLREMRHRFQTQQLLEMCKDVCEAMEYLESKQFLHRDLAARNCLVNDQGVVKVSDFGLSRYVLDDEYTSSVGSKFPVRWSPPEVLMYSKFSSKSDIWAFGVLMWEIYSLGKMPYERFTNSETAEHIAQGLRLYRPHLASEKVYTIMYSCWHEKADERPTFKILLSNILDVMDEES
From the text: Example 2 Determination of Biochemical BTK
1. Reagents and Materials
• BTK recombinant protein: Invitrogen, Cat #PV3363; • Z′-LYTE® kinase test kit-tyrosine 1 peptide: Invitrogen, Cat #PV3190; • 384-well low-flange black flat-bottomed polystyrene NBS microplate, no lid, no sterilization: Corning, Cat #3575; • 96-well polystyrene conical-bottomed MicroWell™ plate, sealed with a lid: Thermo Scientific™ Nunc™, Cat #277143; • Envision multi-mode plate reader: PerkinElmer; • Mixmate® shaker: Eppendorf; • TS-2102 shaking incubator: TENSUC; 2. Methods
Z′-LYTE® biochemical assay employs a fluorescence resonance energy transfer (FRET)-based, coupled-enzyme format and is based on the differential sensitivity of phosphorylated and non-phosphorylated peptides to proteolytic cleavage. Both ends of the short peptide substrate are labeled with two fluorescent groups to form a FRET paired combination. In the primary reaction (the Kinase Reaction), the kinase transfers the γ-phosphate of ATP to a single […] residue on the short peptide substrate. In the secondary reaction (the development reaction), the non-phosphorylated short peptides were recognized and cleaved by a site-specific protease (the development reagent). Phosphorylated short peptides can resist such cleavage. Cleavage of short peptides can disrupt the donor (such as coumarin) and receptor fluorophores (fluorescein) on the short peptides, while the phosphorylated short peptides can maintain FRET. The calculation method of the ratio is as follows, and the ratio of the respective emission signals generated by the donor fluorophores emitted (after excitation at 400 nm) to the receptors is calculated. Emission signal ratio=emitted light by coumarin (445 nm)/emitted light by fluorescein (520 nm). If the FRET short peptide is phosphorylated (such as no kinase inhibitor), the emitted light ratio will remain in a lower level. If the FRET short peptide is non-phosphorylated (such as kinase inhibitor), the emitted light ratio will be in a higher level. In this way, the inhibitory effects of different compound inhibitors on BTK kinase activity would be distinguished.
The experiment were carried out according to the instructions of the Z′-LYTE® kinase test kit-tyrosine 1 peptide. Reagent preparation: 1.33× kinase buffer: 5× kinase buffer was diluted with water to 1.33× kinase buffer; an enzyme solution: the kinase was dissolved in 1.33× kinase buffer with the final working concentration being 3.32 nM; a short peptide solution: a short peptide stock solution (1 mM dissolved in DMSO) was dissolved in 1.33× kinase buffer with the final working concentration being 2 μM; Z′-LYTE Tyr01 phosphorylated short peptide solution, 0.6 μl of stock solution (1 mM dissolved in DMSO) was dissolved in 149.4 μl of 1.33× kinase buffer; an ATP solution: an ATP stock solution (10 mM aqueous solution) was dissolved in 1.33× kinase buffer with the final working concentration being 32 μM; a color-developing solution: color-developing solution B was dissolved in color-developing buffer with the final working concentration being 1× color-developing solution; 4× compound preparation: the compound was diluted in 3-fold gradient concentration to finally obtain 4% DMSO aqueous solution containing different concentrations of the compound, with the final working concentration being 3000, 1000, 333.33, 111.11, 37.04, 12.35, 4.12, 1.37 nM, 8 concentration points in total.
Specific steps of the experiment: In the experiment, there were three control groups, each with 8 replicate wells, which were C1 100% inhibition group (no ATP), C2 0% inhibition group (with ATP), and C3 100% phosphorylation group, respectively. 2.5 μl of serially diluted compound was added to each well of a 384-well plate, with double replicate wells, and 4% DMSO solution was added to wells C1, C2, and C3. […]

concentration at 8 h ([1]; oral, mice, intragastric, 10 mg/kg, plasma at 8 h, read-out: C8 h): 555 ng/mL | concentration at 24 h ([1]; oral, mice, intragastric, 10 mg/kg, plasma at 24 h, read-out: C24 h): 8.5 ng/mL | concentration at 8 h ([1]; plasma, 10 mg/kg, oral administration in mice, 8 h, read-out: plasma concentration at 8 h): 555 ng/mL | concentration at 24 h ([1]; plasma, 10 mg/kg, oral administration in mice, 24 h, lower limit of quantification 2.4 ng/mL, read-out: plasma concentration at 24 h): 8.5 ng/mL | T1/2 ([1]; mice, intragastric, 10 mg/kg): 2.7 h | plasma exposure (AUC0-∞) relative to reference GDC-0853 ([1]; oral administration in mice): about 1.7 times | plasma concentration at 8 h relative to GDC-0853 ([1]; oral administration in mice, 8 h): about 3.9 folds | IC50 [2]: 8 nM
SMILES: C[C@H]1CN(C2COC2)CCN1c1ccc(Nc2cc(-c3ccnc(-n4ccn5c6c(cc5c4=O)CC(C)(C)C6)c3CO)cn(C)c2=O)nc1 [Compound 19]
